Values joined by “and” are separate entries in the source; they are usually repeats but may differ in a detail not shown here. Equal entries are not always repeated.
Columns and labels:
[1] = test system: immunosuppressive macrophage infiltration; settings: preclinical model of metastatic colorectal cancer; cited from earlier work
[2] = REGOMUNE phase II study: safety (adverse events, CTCAE v5.0); design: species or system human; settings: in vivo
Method: After an assessment of eligibility, patients received Regorafenib 160 mg per day on a three weeks on/one week off schedule, in cycles of 28 days. Avelumab treatment began on Day 15 cycle 1, by intravenous infusion once every 2 weeks. Treatment was continued until disease progression, unacceptable toxicity, investigator's decision to discontinue, or withdrawal of patient consent. Participants were monitored for adverse events at every follow-up assessment. Adverse events were graded according to National Cancer Institute Common Terminology Criteria for Adverse Events version 5.0. Laboratory assessments were done at baseline, and every 2 weeks afterwards until treatment discontinuation. Regorafenib dose modifications to manage adverse events were allowed (see study protocol). The dose of Regorafenib could be reduced to 120 mg and then to 80 mg. […] Tumor lesions were assessed according to RECIST version 1.1 at baseline (within 4 weeks prior to Cycle 1 Day 1), and every 8 weeks until disease progression or the start of another treatment. […]
All enrolled patients who initiated the study treatment were included in the safety analysis. […] The median follow-up was calculated using the reverse Kaplan-Meier method. […] Quantitative variables were described using the median and range, and qualitative variables were described using frequency, percentage and 95% confidence interval (binomial law). […]

[3] = test system: metastatic colorectal cancer; settings: cited from earlier work
[4] = Regorafenib single agent in addition to supportive care, pivotal study

| Compound | Effect on immunosuppressive macrophage infiltration [1] | Patients with dose reduction or temporary treatment discontinuation because of a drug-related adverse event ([2]; human) [patients] | Patients with grade 3 or 4 treatment-related adverse events that needed some dose reduction ([3]; CORRECT (as well as CONCUR) study, single agent) | Median overall survival [3, 4] [months] | Median progression-free survival [3, 4] | Objective response rate ([3]; pivotal randomized study) [%] | Patients with dose reduction or temporary treatment discontinuation because of a drug-related adverse event [2] [patients] |
| --- | --- | --- | --- | --- | --- | --- | --- |
| CNC(=O)c1cc(Oc2ccc(NC(=O)Nc3ccc(Cl)c(C(F)(F)F)c3)c(F)c2)ccn1 [Regorafenib] | reduce immunosuppressive macrophage infiltration | 41 | up to 54% | 6.4 | 1.9 months and 2 months | 1 | – |
| Avelumab | – | – | – | – | – | – | 17 |

— patent US20230213520A1, “IN VITRO METHOD FOR THE PROGNOSIS OF DISEASE PROGRESSION IN A PATIENT THAT SUFFERS FROM OR IS AT RISK OF DEVELOPING A SOLID TUMOR” (Bergonié Institute, priority 2020, published 2023)
